Measurements published in patent publication US20200157048A1, “(2E,4E)-5-PHENYL-PENTA-2,4-DIEN-1-ONE DERIVATIVE” (BIOWAY., INC, priority 2018, published 2020).

Key:
Assay type in all cases: cell-based, Human
Details in all cases: steatosis-induced (OA/PA) Huh-7 cells; 10 μM; 24 hours
[1] = tested on: Ck2α mRNA; experiment: qRT-PCR Ck2α mRNA level in steatosis-induced Huh-7 cells
Procedure: (§1) In Experimental Example 5, the Huh-7 cells were plated in 6 wells at 4×10^5 cells/mL and incubated under an atmosphere containing 5% CO2 at 37° C.
(§2) One day later, the cell density approached about 80 to 90%. The medium was changed to an FBS-free RPMI1640 medium, and incubated under an atmosphere containing 5% CO2 at 37° C. for 24 hours.
(§3) Huh-7 cells of each well, excluding control cells, were pretreated with an OA/PA mixture for one hour to induce steatosis. The control cells were pretreated with 1% FA-free BSA.
(§4) Each well was treated with 10 μM of a test compound, and then the cells were incubated for 24 hours. The control cells and OA/PA-treated cells were treated with DMSO. Cells of a positive control were treated with 10 μM of resveratrol, 10 μM of piperine, and 10 μM of YU2014. The medium was entirely aspirated, and the cells were washed with PBS (phosphate buffered saline, Corning, Manassas, Va., USA) two times.
(§5) Total RNA was extracted using a RNeasy RNA isolation kit (Qiagen, Hilden, Germany).
(§6) 10 μL of β-mercaptoethanol (Sigma-Aldrich) per 1 mL of lysis buffer was added, thereby preparing an RNA lysis buffer. […]
(§7) An RNA concentration was measured at O.D. 260 nm using a nanophotometer N60 (Implen, Munich, Germany). The concentration and purity of RNA were measured at O.D. 260/280 nm and calculated as a ratio. […]
(§8) Quantitative analyses for the genes in Table 3 were performed.

[2] = tested on: Fgf21 mRNA; experiment: qRT-PCR Fgf21 mRNA level in steatosis-induced Huh-7 cells
Procedure: as §1, §2, §3, §4, §5, §6, §7, §8

[3] = tested on: Pparα mRNA; experiment: qRT-PCR Pparα mRNA level in steatosis-induced Huh-7 cells
Procedure: as §1, §2, §3, §4, §5, §6, §7, §8

[4] = tested on: Sirt1 mRNA; experiment: qRT-PCR Sirt1 mRNA level in steatosis-induced Huh-7 cells
Procedure: as §1, §2, §3, §4, §5, §6, §7, §8

Compound | Ck2α mRNA level (FIG. 19) [1] | Fgf21 mRNA level (FIG. 12) [2] | Pparα mRNA level (FIG. 10) [3] | Sirt1 mRNA level (FIG. 16) [4]
CCOC(=O)N1CCN(C(=O)/C=C/C=C/c2ccc(SC)cc2)CC1 [R-24, Ethyl 4-((2E,4E)-5-(4-(methylthio)phenyl)penta-2,4-dienoyl)piperazine-1-carboxylate] | greatly reduced |  |  | 
O=C(/C=C/C=C/c1ccc2c(c1)OCO2)N1CCCCC1 [piperine, Piperine] |  | no effect | no effect | 
CCOC(=O)N1CCN(C(=O)/C=C/C=C/c2ccc(OC)cc2)CC1 [R-23, Ethyl 4-((2E,4E)-5-(4-methoxyphenyl)penta-2,4-dienoyl)piperazine-1-carboxylate] |  |  |  | greatly increased
CCC(=O)N1CCN(C(=O)/C=C/C=C/c2ccc(OC)cc2)CC1 [R-18, (2E,4E)-5-(4-methoxyphenyl)-1-(4-propionylpiperazine-1-yl)penta-2,4-dien-1-one] | greatly reduced |  |  | greatly increased
